Assay results reported in US11407977B2, “Tissue scaffolds for electrically excitable cells” (Innovative Surface Technologies, Inc., priority 2013, dated 2022).

System: bioartificial rat hippocampal brain slice
Experiment: Evoked fEPSP field recording on bioartificial tissue scaffold with antagonist cocktail
Format: cell-based
Conditions: cocktail in ACSF: CNQX 10 microM, APV 50 microM, Bicuculline Methbromide 50 microM; 10 minute wash-in; 28 d.i.v.; drug-subtracted average fEPSP, FIG. 12
Procedure: Dissociated hippocampal cells were seeded on open-field scaffolds and grown in an incubator as described in Example 9, to generate bioartificial open field hippocampal brain tissue “slices.” FIG. 11 is a photo micrograph of the bioartificial tissue, on its scaffold, in a conventional field recording chamber.
Bioartificial tissue scaffolds were removed from the incubator for electrophysiological testing between 14-90 days in vitro (d.i.v.). For electrophysiological field recordings, bioartificial tissue scaffolds were suspended on a nylon mesh in a small (350-400 μl) recording chamber (FIG. 11) and perfused with artificial cerebrospinal fluid (ACSF) at a rate of 2.5-3 ml/min (submerged mode). The temperature in the recording chamber was held at 30-32° C. Recordings were made using an ACSF-filled glass micropipette (2-4 MΩ) positioned as shown (FIG. 6) and connected via a head stage to the amplifier (A-M Systems model 1800). Signals were digitized at 100 kHz using a Digidata 1550 series interface (Axon instruments) running ClampEx 10.4. Synaptic responses were evoked by electrical stimulation using a bipolar tungsten electrode (tip spacing, 140 micrometers; Frederick Haer Company) and a 100 microsecond square wave test pulse was delivered at intervals of twenty seconds (FIG. 6). Stimulus-response relationship was established over the range of 0-1000 microV. […]

## N[C@@H](CCCP(=O)(O)O)C(=O)O [APV]
  effect on evoked fEPSP: sensitivity of the bioartificial rat hippocampal brain slice

## N#Cc1cc2[nH]c(=O)c(=O)[nH]c2cc1[N+](=O)[O-] [CNQX]
  effect on evoked fEPSP: sensitivity of the bioartificial rat hippocampal brain slice
